Experimental data taken from ChEMBL document CHEMBL1201862, “PubChem BioAssay data set” (2004).
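Protocol summary: plate cells (96-well), add compound at 5 concentrations, incubate 48 h, interpolate endpoints linearly. GI50 is the concentration that inhibits growth by half.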 Active and inactive are the calls of the source. Rule as the data show it: active = GI50 up to about 1.1 µM and inactive = higher.

How the values were obtained:
Experiment in all cases: inhibition of tumour cell growth, NCI panel, 48 h
[1] = test system: HOP-62
[2] = test system: UACC-62
[3] = test system: M19-MEL
[4] = test system: CCRF-CEM
[5] = test system: NCI-H522
[6] = test system: COLO 205
[7] = test system: MOLT-4
[8] = test system: LOX IMVI
[9] = test system: SF-268
[10] = test system: OVCAR-8
[11] = test system: OVCAR-4
[12] = test system: CAKI-1
[13] = test system: HCT-15
[14] = test system: SR
[15] = test system: SNB-78
[16] = test system: OVCAR-5
[17] = test system: HL-60
[18] = test system: SW-620
[19] = test system: SK-MEL-5
[20] = test system: SF-539
[21] = test system: UACC-257
[22] = test system: TK-10
[23] = test system: EKVX
[24] = test system: SK-MEL-2
[25] = test system: SK-MEL-28
[26] = test system: HOP-18
[27] = test system: KM-20L2
[28] = test system: DMS-273
[29] = test system: SF-295
[30] = test system: Malme-3M
[31] = test system: IGROV-1
[32] = test system: NCI-H460
[33] = test system: NCI-H226
[34] = test system: U-251
[35] = test system: A498
[36] = test system: RXF 393
[37] = test system: A549
[38] = test system: SNB-75
[39] = test system: NCI-H23
[40] = test system: M14
[41] = test system: 786-0
[42] = test system: K562
[43] = test system: ACHN
[44] = test system: KM12
[45] = test system: XF498
[46] = test system: RPMI-8226
[47] = test system: HOP-92
[48] = test system: OVCAR-3
[49] = test system: HCC 2998
[50] = test system: UO-31
[51] = test system: LXFL 529
[52] = test system: HT-29
[53] = test system: HCT-116
[54] = test system: SK-OV-3
[55] = test system: SN12C
[56] = test system: SNB-19
[57] = test system: DMS-114
[58] = test system: DLD-1
[59] = test system: MCF7
[60] = test system: NCI/ADR-RES

For `O=C(CCN(CCO)CCO)Nc1ccc2c(c1)C(=O)c1ccc(NC(=O)CCN(CCO)CCO)cc1C2=O`, the GI50 [1] was 29.4 µM (inactive), the GI50 [2] was 3.44 µM (inactive) and the GI50 [3] was 13.7 µM (inactive). For the same molecule, the GI50 [4] was 6.52 µM (inactive), the GI50 [5] was 5.89 µM (inactive) and the GI50 [6] was 10.7 µM (inactive). The GI50 [7] was 13.8 µM (inactive), the GI50 [8] was 14.2 µM (inactive) and the GI50 [9] was 12.2 µM (inactive). The GI50 [10] was 14 µM (inactive), the GI50 [11] was 20 µM (inactive) and the GI50 [12] was 5.56 µM (inactive). The GI50 [13] was 6.47 µM, the GI50 [14] was 14.8 µM (inactive) and the GI50 [15] was 6.62 µM (inactive). The GI50 [16] was > 100 µM (inactive), the GI50 [17] was 9.59 µM (inactive) and the GI50 [18] was 6.73 µM (inactive). For the same molecule, the GI50 [19] was 17.2 µM (inactive), the GI50 [20] was 4.81 µM (inactive) and the GI50 [21] was 24.1 µM (inactive). The GI50 [22] was 13.4 µM (inactive), the GI50 [23] was 5.69 µM (inactive) and the GI50 [24] was 3.37 µM (inactive). The GI50 [25] was 15.1 µM (inactive), the GI50 [26] was 27 µM (inactive) and the GI50 [27] was 48.4 µM (inactive). For the same molecule, the GI50 [28] was 6.64 µM (inactive), the GI50 [29] was > 100 µM (inactive) and the GI50 [30] was 12.8 µM (inactive). For the same molecule, the GI50 [31] was 13.7 µM (inactive), the GI50 [32] was 10.8 µM (inactive) and the GI50 [33] was 6.95 µM (inactive). The GI50 [34] was 22.3 µM (inactive), the GI50 [35] was 9.86 µM (inactive) and the GI50 [36] was 4 µM (inactive). For the same molecule, the GI50 [37] was 44.4 µM (inactive), the GI50 [38] was 30.8 µM (inactive) and the GI50 [39] was 38.7 µM (inactive). The GI50 [40] was 12.4 µM (inactive), the GI50 [41] was 4.62 µM (inactive) and the GI50 [42] was 18.5 µM (inactive). The GI50 [43] was 9.29 µM (inactive), the GI50 [44] was 14.4 µM (inactive) and the GI50 [45] was 11.9 µM (inactive). The GI50 [46] was 14.6 µM (inactive), the GI50 [47] was 26.7 µM (inactive) and the GI50 [48] was 16.1 µM (inactive). The GI50 [49] was 1.51 µM (inactive), the GI50 [50] was 10.4 µM (inactive) and the GI50 [51] was 2.05 µM (inactive). For the same molecule, the GI50 [52] was 28.1 µM (inactive), the GI50 [53] was 7.36 µM (inactive) and the GI50 [54] was 14.9 µM (inactive). For the same molecule, the GI50 [55] was 12.8 µM (inactive), the GI50 [56] was 22.5 µM (inactive) and the GI50 [57] was 5.11 µM (inactive).
`CC[C@](C)(O)C(=O)O[C@H]1C(=O)O[C@@H]2C[C@H]3C(C)=C[C@H](O)[C@@H](O)[C@]3(C)[C@H]3[C@@]4(O)OC[C@]32[C@@H]1[C@@H](C)[C@H]4O` was tested, and the GI50 [1] was 35.1 µM (inactive), the GI50 [2] was 19.3 µM (inactive) and the GI50 [3] was 11 µM (inactive). The GI50 [4] was 4.19 µM (inactive), the GI50 [5] was 3.58 µM (inactive) and the GI50 [6] was 32.7 µM (inactive). For the same molecule, the GI50 [7] was 6.93 µM (inactive), the GI50 [8] was 14.5 µM (inactive) and the GI50 [9] was 52.5 µM (inactive). For the same molecule, the GI50 [10] was 34 µM (inactive), the GI50 [11] was 58.6 µM (inactive) and the GI50 [12] was 27.5 µM (inactive). For the same molecule, the GI50 [13] was 58.2 µM, the GI50 [15] was 29.2 µM (inactive) and the GI50 [16] was 104 µM (inactive). The GI50 [17] was 7.85 µM (inactive), the GI50 [18] was 12.4 µM (inactive) and the GI50 [19] was 9.48 µM (inactive). For the same molecule, the GI50 [20] was 12.5 µM (inactive), the GI50 [21] was 47.8 µM (inactive) and the GI50 [58] was 6.11 µM (inactive). The GI50 [23] was 9.33 µM (inactive), the GI50 [24] was 37.7 µM (inactive) and the GI50 [25] was 17.3 µM (inactive). For the same molecule, the GI50 [26] was 59.7 µM (inactive), the GI50 [27] was 47.1 µM (inactive) and the GI50 [28] was 17.9 µM (inactive). For the same molecule, the GI50 [29] was 46.5 µM (inactive), the GI50 [30] was 8.93 µM (inactive) and the GI50 [31] was 7.19 µM (inactive). The GI50 [32] was 9.73 µM (inactive), the GI50 [33] was 17.7 µM (inactive) and the GI50 [34] was 12 µM (inactive). The GI50 [35] was 30.2 µM (inactive), the GI50 [36] was 0.631 µM (active) and the GI50 [37] was 61.8 µM (inactive). For the same molecule, the GI50 [38] was 24.2 µM (inactive), the GI50 [39] was 5.78 µM (inactive) and the GI50 [42] was 8.3 µM (inactive). The GI50 [44] was 21.6 µM (inactive), the GI50 [45] was 11.9 µM (inactive) and the GI50 [59] was 11.6 µM (inactive). The GI50 [46] was 4.34 µM (inactive), the GI50 [47] was 4.28 µM (inactive) and the GI50 [48] was 13.5 µM (inactive). The GI50 [60] was > 205 µM (inactive), the GI50 [49] was 14.1 µM (inactive) and the GI50 [50] was 96.2 µM (inactive). For the same molecule, the GI50 [52] was 29.9 µM (inactive), the GI50 [53] was 14.7 µM (inactive) and the GI50 [54] was 71.9 µM (inactive). For the same molecule, the GI50 [55] was 73.5 µM (inactive), the GI50 [56] was 9.79 µM (inactive) and the GI50 [57] was 3.68 µM (inactive).
